Assay results taken from patent US20170190705A1, “Compositions and Methods for Inhibiting BMP” (THE BRIGHAM AND WOMAN'S HOSPITAL, INC., priority 2014, published 2017).
Like-named read-outs stand apart in the source and are kept apart here.

How the values were obtained:
Type in all cases: biochemical
MAP4K4 = MAP4K4 (Homo sapiens, UniProt O95819); experiment: Kinome profiling MAP4K4; conditions: for inhibition at 0.1 µM: 100 nM
Procedure: (§1) . The kinome-wide selectivity was determined following the methods previously reported by Mohedas et al., ACS Chem Biol 2013, 8, 1291-1302 and Sanvitale et al., PLoS One 2013, 8, e62721.

LCK = LCK (Homo sapiens, UniProt P06239); experiment: Kinome profiling LCK; conditions: for inhibition at 0.1 µM: 100 nM
Sequence of LCK (P06239 whole entry): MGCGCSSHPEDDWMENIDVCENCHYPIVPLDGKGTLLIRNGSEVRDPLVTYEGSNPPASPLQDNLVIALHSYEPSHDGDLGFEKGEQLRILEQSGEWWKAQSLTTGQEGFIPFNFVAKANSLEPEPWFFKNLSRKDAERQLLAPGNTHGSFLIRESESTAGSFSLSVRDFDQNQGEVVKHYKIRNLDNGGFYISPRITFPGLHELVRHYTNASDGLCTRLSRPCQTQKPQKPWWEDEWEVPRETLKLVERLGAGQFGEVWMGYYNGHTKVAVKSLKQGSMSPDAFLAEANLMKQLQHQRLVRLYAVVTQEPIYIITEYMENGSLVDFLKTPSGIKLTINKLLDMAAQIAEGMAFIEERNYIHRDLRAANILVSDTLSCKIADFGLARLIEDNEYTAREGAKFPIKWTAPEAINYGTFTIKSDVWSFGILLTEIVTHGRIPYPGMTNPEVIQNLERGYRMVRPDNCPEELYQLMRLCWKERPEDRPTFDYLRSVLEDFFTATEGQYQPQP
Procedure: as §1

CSK = CSK (Homo sapiens, UniProt P41240); experiment: Kinome profiling CSK; conditions: read-out: Inhibitory activity CSK; for inhibition at 0.1 µM: 100 nM
Sequence of CSK (P41240 whole entry): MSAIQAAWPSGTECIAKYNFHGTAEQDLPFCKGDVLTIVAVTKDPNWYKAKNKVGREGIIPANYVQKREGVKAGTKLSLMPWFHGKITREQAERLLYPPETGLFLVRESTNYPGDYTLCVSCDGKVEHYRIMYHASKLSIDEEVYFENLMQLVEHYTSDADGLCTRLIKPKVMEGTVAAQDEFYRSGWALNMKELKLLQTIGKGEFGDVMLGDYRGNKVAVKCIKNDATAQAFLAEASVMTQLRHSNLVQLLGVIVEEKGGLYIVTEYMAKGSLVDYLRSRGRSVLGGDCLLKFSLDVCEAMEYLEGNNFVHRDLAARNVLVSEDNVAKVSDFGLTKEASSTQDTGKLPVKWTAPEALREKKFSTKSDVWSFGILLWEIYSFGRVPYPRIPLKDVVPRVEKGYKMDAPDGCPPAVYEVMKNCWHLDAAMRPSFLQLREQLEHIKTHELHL
Procedure: as §1

EPHB3 = target: T1, EPHB3 (Homo sapiens, UniProt P54753); experiment: Kinome profiling EPHB3; conditions: read-out: Inhibitory activity EPHB3; for inhibition at 0.1 µM: 100 nM
T1 sequence (P54753 34-998): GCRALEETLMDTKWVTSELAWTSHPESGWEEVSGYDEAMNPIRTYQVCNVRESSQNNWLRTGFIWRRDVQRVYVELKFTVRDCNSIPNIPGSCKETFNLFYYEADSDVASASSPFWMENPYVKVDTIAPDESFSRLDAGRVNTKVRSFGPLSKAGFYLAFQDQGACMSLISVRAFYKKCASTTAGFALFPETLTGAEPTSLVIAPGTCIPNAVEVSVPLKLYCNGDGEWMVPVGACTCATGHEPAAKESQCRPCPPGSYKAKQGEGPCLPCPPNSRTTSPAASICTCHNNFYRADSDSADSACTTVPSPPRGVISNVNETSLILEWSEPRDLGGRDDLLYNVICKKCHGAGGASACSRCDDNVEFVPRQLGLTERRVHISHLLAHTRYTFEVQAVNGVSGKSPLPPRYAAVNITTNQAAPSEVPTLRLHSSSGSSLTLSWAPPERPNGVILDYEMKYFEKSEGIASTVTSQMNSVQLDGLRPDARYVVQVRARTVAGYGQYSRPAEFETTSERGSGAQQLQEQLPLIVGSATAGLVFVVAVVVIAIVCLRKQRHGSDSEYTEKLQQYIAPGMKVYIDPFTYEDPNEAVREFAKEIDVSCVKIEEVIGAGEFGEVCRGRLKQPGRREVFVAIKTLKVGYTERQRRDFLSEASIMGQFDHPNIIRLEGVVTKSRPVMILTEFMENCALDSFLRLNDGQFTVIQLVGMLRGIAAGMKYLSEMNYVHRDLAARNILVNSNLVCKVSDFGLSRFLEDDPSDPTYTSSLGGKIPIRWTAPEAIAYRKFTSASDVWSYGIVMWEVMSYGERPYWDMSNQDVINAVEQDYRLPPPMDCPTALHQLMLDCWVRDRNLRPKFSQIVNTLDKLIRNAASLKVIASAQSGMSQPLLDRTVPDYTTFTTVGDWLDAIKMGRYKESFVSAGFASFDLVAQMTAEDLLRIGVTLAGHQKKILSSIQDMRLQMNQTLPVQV
Procedure: as §1

ERB-B2 = ERB-B2 (Homo sapiens, UniProt P04626); experiment: Kinome profiling ERB-B2; conditions: read-out: Inhibitory activity ERB-B2; for inhibition at 0.1 µM: 100 nM
Sequence of ERB-B2 (P04626 23-1255): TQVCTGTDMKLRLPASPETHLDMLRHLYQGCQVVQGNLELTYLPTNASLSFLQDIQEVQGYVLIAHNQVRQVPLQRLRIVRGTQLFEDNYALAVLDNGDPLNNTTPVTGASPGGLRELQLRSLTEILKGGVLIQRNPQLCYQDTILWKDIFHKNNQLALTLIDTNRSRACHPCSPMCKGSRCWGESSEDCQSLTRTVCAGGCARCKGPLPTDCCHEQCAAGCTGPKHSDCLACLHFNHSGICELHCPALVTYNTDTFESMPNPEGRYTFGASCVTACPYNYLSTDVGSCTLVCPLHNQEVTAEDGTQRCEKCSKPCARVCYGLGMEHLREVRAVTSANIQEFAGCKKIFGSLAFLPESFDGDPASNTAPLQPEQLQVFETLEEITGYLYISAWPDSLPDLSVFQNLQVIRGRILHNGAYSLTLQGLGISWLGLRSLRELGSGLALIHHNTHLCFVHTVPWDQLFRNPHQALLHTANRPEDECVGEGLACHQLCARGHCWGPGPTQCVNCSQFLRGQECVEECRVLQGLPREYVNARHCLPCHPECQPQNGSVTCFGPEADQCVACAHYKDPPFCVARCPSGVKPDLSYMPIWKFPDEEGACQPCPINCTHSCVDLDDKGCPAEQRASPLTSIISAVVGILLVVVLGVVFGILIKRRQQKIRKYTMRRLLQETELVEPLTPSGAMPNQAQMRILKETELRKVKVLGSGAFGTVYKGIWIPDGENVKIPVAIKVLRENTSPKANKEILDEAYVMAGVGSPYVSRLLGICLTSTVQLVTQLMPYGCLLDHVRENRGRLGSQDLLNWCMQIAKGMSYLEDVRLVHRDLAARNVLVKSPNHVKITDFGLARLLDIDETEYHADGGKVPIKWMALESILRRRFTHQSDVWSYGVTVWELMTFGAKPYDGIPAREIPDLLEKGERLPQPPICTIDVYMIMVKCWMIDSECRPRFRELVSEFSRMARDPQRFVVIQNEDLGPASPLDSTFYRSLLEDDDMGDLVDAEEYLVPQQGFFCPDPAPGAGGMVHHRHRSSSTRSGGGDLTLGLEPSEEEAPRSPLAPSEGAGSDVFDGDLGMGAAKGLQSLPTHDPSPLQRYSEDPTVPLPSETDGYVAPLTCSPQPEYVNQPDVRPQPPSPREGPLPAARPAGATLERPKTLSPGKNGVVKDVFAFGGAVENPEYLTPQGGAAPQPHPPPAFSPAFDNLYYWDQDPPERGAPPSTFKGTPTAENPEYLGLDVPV
Procedure: as §1

CDK4/cyclinD = CDK4/cyclinD (Homo sapiens, UniProt P11802); experiment: Kinome profiling CDK4/cyclinD; conditions: read-out: Inhibitory activity CDK4/cyclinD; for inhibition at 0.1 µM: 100 nM
Sequence of CDK4/cyclinD (P11802 whole entry): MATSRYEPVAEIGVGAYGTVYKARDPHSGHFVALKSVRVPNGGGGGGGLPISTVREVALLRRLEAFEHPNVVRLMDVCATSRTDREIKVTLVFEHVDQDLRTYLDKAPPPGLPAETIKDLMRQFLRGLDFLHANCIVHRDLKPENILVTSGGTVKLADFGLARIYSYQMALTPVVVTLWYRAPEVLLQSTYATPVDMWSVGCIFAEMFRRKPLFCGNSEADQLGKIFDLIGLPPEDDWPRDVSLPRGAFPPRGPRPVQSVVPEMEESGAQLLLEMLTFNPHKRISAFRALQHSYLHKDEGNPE
Sequence of CDK4/cyclinD (P24385 whole entry partner): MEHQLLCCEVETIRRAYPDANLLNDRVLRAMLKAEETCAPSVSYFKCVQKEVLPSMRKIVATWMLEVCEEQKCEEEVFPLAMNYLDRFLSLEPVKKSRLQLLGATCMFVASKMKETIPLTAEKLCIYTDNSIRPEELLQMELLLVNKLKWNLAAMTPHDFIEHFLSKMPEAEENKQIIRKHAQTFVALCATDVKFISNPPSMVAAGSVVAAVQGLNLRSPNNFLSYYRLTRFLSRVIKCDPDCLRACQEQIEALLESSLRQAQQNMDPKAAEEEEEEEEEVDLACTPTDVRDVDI
Procedure: as §1

RSK4 = RSK4 (Homo sapiens, UniProt Q9UK32); experiment: Kinome profiling RSK4; conditions: read-out: Inhibitory activity RSK4; for inhibition at 0.1 µM: 100 nM
Sequence of RSK4 (Q9UK32 whole entry): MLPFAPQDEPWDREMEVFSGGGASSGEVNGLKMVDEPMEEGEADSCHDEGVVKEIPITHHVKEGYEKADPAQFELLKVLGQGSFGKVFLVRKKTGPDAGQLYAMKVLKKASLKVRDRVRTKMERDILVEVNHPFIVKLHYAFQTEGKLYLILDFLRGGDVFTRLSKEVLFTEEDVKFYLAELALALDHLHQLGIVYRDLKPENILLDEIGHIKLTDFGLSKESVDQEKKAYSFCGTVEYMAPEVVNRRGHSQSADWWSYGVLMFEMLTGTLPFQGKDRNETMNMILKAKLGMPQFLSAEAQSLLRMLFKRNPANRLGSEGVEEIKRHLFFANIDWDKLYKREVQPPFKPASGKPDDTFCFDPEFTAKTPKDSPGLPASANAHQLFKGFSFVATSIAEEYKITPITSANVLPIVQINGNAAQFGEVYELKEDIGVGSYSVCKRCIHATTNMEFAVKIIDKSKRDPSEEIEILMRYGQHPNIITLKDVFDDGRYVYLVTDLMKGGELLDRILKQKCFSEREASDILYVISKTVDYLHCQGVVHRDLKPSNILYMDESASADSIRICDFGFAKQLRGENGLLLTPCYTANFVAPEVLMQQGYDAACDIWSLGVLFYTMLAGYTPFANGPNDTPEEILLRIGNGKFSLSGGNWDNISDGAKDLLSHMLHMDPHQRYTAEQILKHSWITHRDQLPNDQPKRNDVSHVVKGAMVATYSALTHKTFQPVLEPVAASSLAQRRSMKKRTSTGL
Procedure: as §1

P38γ = target: T2, P38γ (Homo sapiens, UniProt P53778); experiment: Kinome profiling P38γ; conditions: read-out: Inhibitory activity P38γ; for inhibition at 0.1 µM: 100 nM
T2 sequence (P53778 1-367): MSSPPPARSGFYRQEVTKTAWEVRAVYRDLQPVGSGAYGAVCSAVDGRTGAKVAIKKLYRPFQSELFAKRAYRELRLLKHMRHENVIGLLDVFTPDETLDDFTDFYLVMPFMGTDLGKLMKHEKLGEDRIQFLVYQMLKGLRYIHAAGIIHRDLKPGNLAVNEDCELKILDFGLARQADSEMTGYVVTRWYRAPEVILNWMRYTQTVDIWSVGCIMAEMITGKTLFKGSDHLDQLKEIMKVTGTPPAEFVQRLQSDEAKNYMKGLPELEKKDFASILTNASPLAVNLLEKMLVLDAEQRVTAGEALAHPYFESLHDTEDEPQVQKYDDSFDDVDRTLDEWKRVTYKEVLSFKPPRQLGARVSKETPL
Procedure: as §1

CAMK4 = target: T3, CAMK4 (Homo sapiens, UniProt Q16566); experiment: Kinome profiling CAMK4; conditions: read-out: Inhibitory activity CAMK4; for inhibition at 0.1 µM: 100 nM
T3 sequence (Q16566 1-473): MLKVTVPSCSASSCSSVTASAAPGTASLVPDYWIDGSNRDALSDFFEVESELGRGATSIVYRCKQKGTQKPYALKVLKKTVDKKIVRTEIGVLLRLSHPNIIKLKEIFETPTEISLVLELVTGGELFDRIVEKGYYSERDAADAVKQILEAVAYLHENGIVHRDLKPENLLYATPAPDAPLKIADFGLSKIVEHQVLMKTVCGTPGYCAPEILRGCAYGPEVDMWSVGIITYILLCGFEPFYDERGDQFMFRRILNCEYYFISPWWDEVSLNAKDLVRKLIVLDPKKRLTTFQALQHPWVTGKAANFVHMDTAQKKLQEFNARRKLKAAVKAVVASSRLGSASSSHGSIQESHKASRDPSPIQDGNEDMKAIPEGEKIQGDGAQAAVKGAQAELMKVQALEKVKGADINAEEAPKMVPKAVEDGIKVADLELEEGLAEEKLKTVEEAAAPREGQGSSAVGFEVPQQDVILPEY
Procedure: as §1

[1] = Table 4, read-out: Inhibitory Activity MAP4K4
[2] = read-out: Inhibitory activity MAP4K4
[3] = Table 4, read-out: Inhibitory Activity LCK
[4] = read-out: Inhibitory activity LCK

Sequence of MAP4K4 (O95819 whole entry): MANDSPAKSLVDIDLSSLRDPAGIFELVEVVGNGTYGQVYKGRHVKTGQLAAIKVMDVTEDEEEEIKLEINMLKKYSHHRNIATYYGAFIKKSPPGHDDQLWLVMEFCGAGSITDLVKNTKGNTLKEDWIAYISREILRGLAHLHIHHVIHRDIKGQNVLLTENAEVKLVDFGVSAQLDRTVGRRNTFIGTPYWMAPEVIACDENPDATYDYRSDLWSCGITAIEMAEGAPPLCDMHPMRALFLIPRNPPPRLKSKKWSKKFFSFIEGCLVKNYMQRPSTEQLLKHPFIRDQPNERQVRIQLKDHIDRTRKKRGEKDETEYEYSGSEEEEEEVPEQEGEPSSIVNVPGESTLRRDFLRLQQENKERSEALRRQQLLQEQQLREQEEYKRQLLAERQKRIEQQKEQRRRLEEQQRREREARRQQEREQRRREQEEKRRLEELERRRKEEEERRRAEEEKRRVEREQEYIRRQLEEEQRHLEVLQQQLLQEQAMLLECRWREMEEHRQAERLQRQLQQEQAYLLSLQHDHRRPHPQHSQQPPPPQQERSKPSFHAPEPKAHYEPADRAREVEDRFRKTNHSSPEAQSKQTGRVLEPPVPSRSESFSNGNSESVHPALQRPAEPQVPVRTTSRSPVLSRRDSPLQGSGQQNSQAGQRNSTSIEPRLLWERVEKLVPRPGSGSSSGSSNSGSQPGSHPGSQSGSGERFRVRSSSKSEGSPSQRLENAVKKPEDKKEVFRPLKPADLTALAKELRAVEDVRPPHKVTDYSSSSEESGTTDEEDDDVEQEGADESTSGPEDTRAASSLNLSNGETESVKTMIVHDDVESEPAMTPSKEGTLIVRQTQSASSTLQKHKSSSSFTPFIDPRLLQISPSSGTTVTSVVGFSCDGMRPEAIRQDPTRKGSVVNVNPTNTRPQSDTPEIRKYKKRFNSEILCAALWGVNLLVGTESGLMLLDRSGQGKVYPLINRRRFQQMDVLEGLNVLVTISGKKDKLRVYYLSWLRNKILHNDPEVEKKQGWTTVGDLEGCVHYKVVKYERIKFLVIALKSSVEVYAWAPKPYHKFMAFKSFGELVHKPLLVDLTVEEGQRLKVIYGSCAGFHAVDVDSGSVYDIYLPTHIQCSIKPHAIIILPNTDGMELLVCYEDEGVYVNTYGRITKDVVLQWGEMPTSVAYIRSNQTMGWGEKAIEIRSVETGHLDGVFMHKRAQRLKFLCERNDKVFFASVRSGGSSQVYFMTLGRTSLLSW

SMILES	inhibition at 0.1 µM (MAP4K4; [2]) [%]	inhibition at 1 µM (MAP4K4; [2]) [%]	inhibition at 0.1 µM (LCK; [4]) [%]	inhibition at 1 µM (LCK; [4]) [%]	inhibition at 0.1 µM (CSK) [%]	inhibition at 1 µM (CSK) [%]	inhibition at 0.1 µM (EPHB3) [%]	inhibition at 1 µM (EPHB3) [%]	inhibition at 0.1 µM (ERB-B2) [%]	inhibition at 1 µM (ERB-B2) [%]	inhibition at 0.1 µM (CDK4/cyclinD) [%]	inhibition at 1 µM (CDK4/cyclinD) [%]	inhibition at 0.1 µM (RSK4) [%]	inhibition at 1 µM (RSK4) [%]	inhibition at 0.1 µM (P38γ) [%]	inhibition at 1 µM (P38γ) [%]	inhibition at 0.1 µM (CAMK4) [%]	inhibition at 1 µM (CAMK4) [%]	other results
COc1cc(-c2cc(-c3ccc(N4CCNCC4)cc3)cnc2C)cc(OC)c1OC [Compound 10, 1-(4-(6-methyl-5-(3,4,5-trimethoxyphenyl)pyridin-3-yl)phenyl)piperazine]	34	92	21	65	4	5	1	1	0	3	-3	2	1	1	-2	1	0	-1	inhibition at 0.1 µM (MAP4K4; [1]): 34%; inhibition at 1 µM (MAP4K4; [1]): 92%; inhibition at 0.1 µM (LCK; [3]): 21%; inhibition at 1 µM (LCK; [3]): 65%
COc1cc(-c2cc(-c3ccc(N4CCNCC4)cc3)cnc2N)cc(OC)c1OC [Compound 15, 5-(4-(piperazin-1-yl)phenyl)-3-(3,4,5-trimethoxyphenyl)pyridin-2-amine]	77	90	65	86	10	36	5	7	0	5	1	3	1	2	2	1	21	-1	–
